Where two headings read alike, the source gives them in different places. Where only a bound is given, the exact number is not on record here.

The target of one assay is LmajUUT1. The assay can be described thus: [3H]-uridine uptake by L. major promastigotes, high-affinity uracil-sensitive component. In kind it is cell-based, Leishmania major. Conditions: inhibition of 0.25 μM [3H]-uridine uptake. The protocol: (§1) Using the standard uptake technique as described for T. brucei and Leishmania species ([Wallace et al., 2002], [Al-Salabi and De Koning, 2005], [Gudin et al., 2006]), the dose- or time-dependent uptake of radiolabeled permeants was investigated.
(§2) Briefly, cells in the mid-to-late logarithmic stage of growth were harvested by centrifugation for 10 min at 1500×g. The cells were washed twice with transport assay buffer (AB: 33 mM HEPES, 98 mM NaCl, 4.6 mM KCl, 0.55 mM CaCl2, 0.07 mM MgSO4, 5.8 mM NaH2PO4, 0.3 mM MgCl2, 23 mM NaHCO3, 14 mM glucose, pH 7.3), resuspended at a density of 10^8 cells ml^−1 in AB, and left for 20–30 min at room temperature to recover from centrifugation stress. One hundred microliters of cell suspension was incubated at ambient temperature for a predetermined time with 100 μl radiolabeled test compound, in the presence or absence of unlabeled substrate or other competitive inhibitors. The incubation was terminated by the addition of ice-cold stop solution (AB containing saturating levels, usually 10 mM, of unlabeled permeant) and centrifugation through oil for 1 min at 13,000 × g. […] Radioactivity was determined by liquid scintillation counting in a Beckman LS6000 TA scintillation counter. Saturation data, inhibition data, and time courses were plotted to equations for linear or non-linear regression (hyperbolic or sigmoid curves), as appropriate. All experiments were performed in triplicate and on at least three independent occasions.

For assay [1], the target named is LmajNT1. The assay can be described thus: [3H]-uridine uptake by L. major promastigotes, low-affinity component. The note with it: inhibition of 0.25 μM [3H]-uridine uptake. In kind it is cell-based, Leishmania major. How it is done:
as §1, §2

In assay [2] the target is LmajNT1. Description: [3H]-thymidine uptake by L. major promastigotes. In kind it is cell-based, Leishmania major. How it is done: as §1, §2
Subsequent experiments were performed with a 5 min incubation time.

In a further assay the target is LmexUU1. In kind it is cell-based, Leishmania mexicana. The protocol:
as §1, §2

The subject of the next assay is L. major promastigotes. The assay can be described thus: metabolomic analysis of treated L. major promastigotes. In kind it is cell-based, Leishmania major. The note with it: 100 μM, 8 h; for dCMP peak intensity: n = 3, SEM, untreated: not detected (<500); for dUrd peak intensity: untreated: 712 ± 105; for dCTP peak intensity: untreated: 995 ± 109; for dAdo peak intensity: untreated: 2992 ± 173; for dAMP peak intensity: untreated: 6192 ± 910; for dADP peak intensity / dCDP peak intensity: untreated: not detected. The protocol:
(§3) Metabolomics analysis of the Leishmania promastigotes was undertaken in triplicate, exactly as described ([Ali et al., 2013a]). Briefly, cells were grown to log phase stage, resuspended at 2 × 10^6 cells/ml in 50 ml HOMEM/FBS and incubated 8 h with 100 μM of test compound (standard conditions) before transfer to a 50-ml centrifuge tube for instantaneous cooling (dry ice/ethanol bath, 4 °C) and centrifugation (2500 rpm, 10 min, 4 °C). The pellet was lysed with 200 μl of chloroform/methanol/water (1:3:1 v/v/v) containing mass spectrometry standards, and vigorous mixing (1 h, 4 °C); cell debris was removed by centrifugation and the metabolite extracts were stored in HPLC vials at −80 °C. Control samples were prepared in parallel and included untreated cells, unused growth medium, test compound solution and extraction solvent blanks. The analysis used a hydrophilic interaction liquid chromatography (HILIC-LC) fitted with a zwitterionic ZIC-pHILIC column (Merck Sequant), coupled to high resolution mass spectrometry (MS) using a Thermo Q-Exactive, and metabolomic data outputs were analyzed using the IDEOM application (http://mzmatch.sourceforge.net/ideom.php) with default parameters ([Creek et al., 2012]) exactly as described ([Ali et al., 2013a]). The lower limit of detection was set to 500 intensity units for all reported metabolites, in order to prevent spurious identification of low level signals.
(§4) The mechanism of action of the fluorinated pyrimidines was investigated using a metabolomics approach, where promastigotes of L. mexicana and L. major were incubated for 8 h with 100 μM of either 5-FU, 5F-2′dUrd or 5F-Urd prior to metabolite extraction and mass spectrometric analysis as described ([Ali et al., 2013a], [Alkhaldi et al., 2015]). These conditions were chosen to allow for significant metabolite accumulation while not affecting cell viability or growth rate, which could broadly affect metabolite levels.

The subject of another assay is Lmex5F2′dURes. The assay can be described thus: microbe, parasite or virus in culture. In kind it is cell-based, Leishmania mexicana. The note with it: for EC50: Leishmania mexicana; for RF (Resistance Factor = IC50 (resistant clone)/IC50 (WT)): Lmex5F2′dURes vs L. mexicana WT. The protocol:
(§5) Sensitivity assays of Leishmania strains to various drugs using the viability dye resazurin (Alamar Blue) (Sigma-Aldrich) were performed using a protocol adapted from [Räz et al. (1997)], as described ([Al-Salabi et al., 2003], [Gould et al., 2008]). Pentamidine and diminazene were used as non-nucleoside controls and were obtained from Sigma-Aldrich, as were many purines, pyrimidines, and analogs, with the exceptions of 2-thiouridine and 4-thiouridine (TriLink BioTechnologies, San Diego, CA); 5′-deoxyuridine, and 2′-3′-dideoxyuridine (Carbosynth, Compton, UK); 5-fluoro-2′-deoxyuridine (Fluka); and 2-thiouracil (ICN Biomedicals, Cambridge, UK). A preliminary promastigote culture was diluted to a density of 2 × 10^6 cells/ml, of which 100 μl was added to wells of 96-well plates pre-loaded with 100 μl of doubling dilutions of test compounds, resulting in a final density of 1 × 10^6 cells/ml; the dilutions were over 2 rows of the plate (23 concentrations), with the last well containing only medium and serving as the no-drug control. The plates were incubated at 25 °C for 72 h before adding the Alamar Blue dye (20 μl of 12.5 mg resazurin sodium salt (Sigma) in 100 ml phosphate buffered saline (PBS; pH 7.4)). Since Leishmania parasites metabolize the Alamar Blue dye slower than trypanosomes ([Gould et al., 2008]), the cells were incubated with the dye for a further period of 48 h before measuring the fluorescence, using a FLUOstar Optima fluorimeter (BMG Labtech) at wavelengths of 544 nm for excitation and 620 nm for emission. […] Each experiment was performed independently at least 4 times; statistical significance was determined using Student's unpaired t-test.

A further assay relates to Lmex5FURes. The assay can be described thus: microbe, parasite or virus in culture. In kind it is cell-based, Leishmania mexicana. The note with it: for EC50: Leishmania mexicana; for RF (Resistance Factor = IC50 (resistant clone)/IC50 (WT)): Lmex5FURes vs L. mexicana WT. The protocol: as §5
In assay [3] the test system is L. mexicana promastigotes WT. The assay can be described thus: Alamar blue drug sensitivity assay, L. mexicana WT. In kind it is cell-based, Leishmania mexicana. The note with it: for EC50: Leishmania mexicana, 72 h, WT promastigotes, 72 h + 48 h with dye, n ≥ 4, read-out: EC50; for activity against L. mexicana promastigotes: at concentrations up to 5 mM. The protocol: as §5

Assay [4] concerns L. major promastigotes WT. Description: Alamar blue drug sensitivity assay, L. major WT. In kind it is cell-based, Leishmania major. Conditions: for EC50: Leishmania major, WT promastigotes, 72 h + 48 h with dye, n ≥ 4, read-out: EC50. How it is done:
as §5
A general note: Resazurin is reduced to fluorescent resorufin, in cell work by metabolically active cells.

Assay [5] has as its system L. mexicana promastigotes. Description: metabolomic analysis of treated L. mexicana promastigotes. In kind it is cell-based, Leishmania mexicana. Conditions: 100 μM, 8 h; for dCMP peak intensity: n = 3, SEM, untreated: not detected (<500); for dUrd peak intensity: untreated: 304 ± 155; for dADP peak intensity: untreated: 1458; for dAdo peak intensity: untreated: 2585 ± 811; for dCDP peak intensity / dCTP peak intensity: untreated: not detected. How it is done: as §3, §4

A further assay has as its target LmexNT1. In kind it is cell-based, Leishmania mexicana. Conditions: inhibition of 0.25 μM [3H]-uridine uptake in the presence of 1 mM uracil. How it is done:
as §1, §2

In a further assay the test system is Lmaj5FURes. Description: microbe, parasite or virus in culture. In kind it is cell-based, Leishmania major. Conditions: for EC50: Leishmania major; for RF (Resistance Factor = IC50 (resistant clone)/IC50 (WT)): Lmaj5FURes vs L. major WT. How it is done:
as §5

For another assay, the system named is Lmaj5F2′dURes. Description: microbe, parasite or virus in culture. In kind it is cell-based, Leishmania major. The note with it: for EC50: Leishmania major; for RF (Resistance Factor = IC50 (resistant clone)/IC50 (WT)): Lmaj5F2′dURes vs L. major WT. How it is done:
as §5

Where [6] appears, read: inhibition of 0.25 μM [3H]-thymidine uptake (total LmajNT1.1 + LmajNT1.2), 5 min.

Turning to `O=c1ccn([C@H]2C[C@H](O)[C@@H](CO)O2)c(=O)[nH]1` [2′-deoxyuridine], the Ki (commonly the dissociation constant of the complex between target and ligand, obtained from inhibition or displacement) at LmajUUT1 turned out to be 24.9 ± 8.6 µM; at LmajNT1 [1], 24.9 ± 8.6 µM; at LmajNT1 [2] (setting [6]) it was 112 ± 17 µM; on LmexUU1 (inhibition of [3H]-uracil uptake, 4 min) it was 9.3 ± 2.6 µM. For the same molecule, the “maximal inhibition of [3H]-uracil transport” value in the assay with LmexUU1 (n = 3) is “approximately 85%”.

Take `O=c1[nH]c(=O)n([C@H]2C[C@H](O)[C@@H](CO)O2)cc1F` [5F-2′dUrd, 5-Fluoro-2′-deoxyuridine]: affinity on LmajNT1 [2] was put at a Ki of 29.7 ± 2.1 µM. Also, in the assay on L. major promastigotes, the dCMP peak intensity result was “not detected”, the dUrd peak intensity is 7615 ± 1236^∗ arbitrary units, the dCTP peak intensity turned out to be 7036 ± 1684 arbitrary units and the dAdo peak intensity was 14181 ± 3275 arbitrary units. Besides, in the assay on L. major promastigotes, the dAMP peak intensity stood at 14740 ± 2815 arbitrary units, the dADP peak intensity came out at 6493 ± 3261 arbitrary units and the dCDP peak intensity is reported as 6617 ± 188^∗∗∗ arbitrary units. In the assay on Lmex5F2′dURes, the EC50 (usually the concentration at which the effect is half-maximal) is above 5000 µM and the “RF (Resistance Factor = IC50 (resistant clone)/IC50 (WT))” value (shortened to “RF”) is recorded as above 3500. Also, in the assay with Lmex5FURes, the concentration giving a half-maximal response (EC50) came out at 1.5 ± 0.2 µM and the “RF” value was 1.07. Also, the EC50 in [3] is around 1.5 µM. Also, the EC50 in assay [4] (72 h) is around 1.5 µM. In addition, in [5] (detection limit 500 units (Fig. 13F)), the dTTP intensity result is given as “Not detectable”. In assay [5], the dCMP peak intensity came to 6006 ± 3089 arbitrary units, the dUrd peak intensity is 5414 ± 717^∗ arbitrary units, the dADP peak intensity was 8367 ± 1844^∗ arbitrary units and the dAdo peak intensity came out at 5412 ± 1699 arbitrary units. In assay [5], the dCDP peak intensity is listed as 4451 ± 1188^∗ arbitrary units and the dCTP peak intensity turned out to be 1569 ± 244 arbitrary units. On LmexNT1, the Ki was determined as 6.99 ± 0.11 µM. Also, in the assay with Lmaj5FURes, the EC50 stood at 6.1 ± 0.5 µM and the “RF” value was found to be 3.6. For the same molecule, in the assay with Lmaj5F2′dURes, the EC50 was 381 ± 83 µM and the “RF” value is reported as 224.

Take `O=c1[nH]c(=O)n([C@@H]2O[C@H](CO)[C@@H](O)[C@H]2O)cc1F` [5F-Urd, 5-Fluorouridine]: on LmajNT1 [2] (setting [6]), the Ki came to 23.4 ± 1.3 µM. In the assay with L. major promastigotes, the dCMP peak intensity was 6744 ± 3500 arbitrary units, the dUrd peak intensity is listed as 8145 ± 1684^∗ arbitrary units, the dCTP peak intensity is 5477 ± 1350^∗ arbitrary units and the dAdo peak intensity is reported as 11818 ± 839^∗∗ arbitrary units. In addition, in the assay with L. major promastigotes, the dAMP peak intensity was 18001 ± 2307^∗ arbitrary units, the dADP peak intensity stood at 6482 ± 3260 arbitrary units and the dCDP peak intensity was 6904 ± 384^∗∗ arbitrary units. Further, in the assay with Lmex5F2′dURes, the concentration giving a half-maximal response (EC50) was above 5000 µM and the “RF” value amounted to 1. In the assay on Lmex5FURes, the EC50 was above 5000 µM and the “RF” value is listed as 1. Also, in assay [3], the EC50 was above 5000 µM and the “activity against L. mexicana promastigotes” value was “insensitive”. In addition, in assay [3] (listed as 5-fluorouridine), the “activity against L. mexicana promastigotes” value is given as “no activity”. For the same molecule, in assay [4], the “concentrations that killed promastigotes” value is given as “below 20 μM” and the EC50 came to 18 ± 1.6 µM. In addition, in assay [5], the dCMP peak intensity is listed as 12757 ± 1038^∗∗ arbitrary units, the dUrd peak intensity is recorded as 6439 ± 456^∗ arbitrary units, the dADP peak intensity is listed as 9404 ± 1389^∗ arbitrary units and the dAdo peak intensity is 8045 ± 4537 arbitrary units. In assay [5], the dCDP peak intensity is recorded as 10404 ± 1470^∗ arbitrary units and the dCTP peak intensity is reported as 2338 ± 428^∗ arbitrary units. The dAMP peak intensity in assay [5] (untreated: 10660 ± 2897) is recorded as 21978 ± 1784^∗∗ arbitrary units. In the assay with Lmaj5FURes, the EC50 amounted to 110 ± 17 µM and the “RF” value turned out to be 6.1. In the assay with Lmaj5F2′dURes, the concentration for a half-maximal effect (EC50) stood at 1230 ± 340 µM and the “RF” value came out at 68.
